US7605227B2, “Melanoma antigen peptide analogues” (MannKind Corporation, priority 2005, dated 2009)
Square brackets hold non-standard residues; d marks the D form. Ends that are not written are not given here. Peptide text beside a SMILES is read from it. Phe(4-NO2) = N[C@@H](Cc1ccc([N+](=O)[O-])cc1)C(=O)O; Nva = CCC[C@H](N)C(=O)O

What was measured:
[1] = test system: splenocytes stimulated with wild-type peptide NY-ESO-1157-165; assay: NY-ESO-1 boost, ex vivo IFN-gamma production by splenocytes (ELISA); format: in vivo, mice; conditions: 10 μM wild-type peptide, 3 and 6 days
From the text: Supernatants were harvested and the concentration of IFN-γ measured by ELISA.

[2] = test system: target cells coated with wild-type peptide; assay: Plasmid prime, NY-ESO-1 peptide boost, in vivo cytotoxicity (CFSE); set-up: species or system HHD mice; conditions: plasmid entrain, peptide amplify; targets coated with wild-type NY-ESO-1 peptide
Description: (§1) These cells were then stained with CFSE^hi and CFSE^med fluorescence (4.0 μM or 1 μM, respectively, for 15 minutes) and intravenously co-injected into immunized mice with an equal number of control splenocytes stained with CFSE^lo fluorescence (0.4 μM). Eighteen hours later the specific elimination of target cells was measured by removing the spleens and PBMC from challenged animals and measuring CFSE fluorescence by flow cytometry. The relative depletion of the populations corresponding to peptide loaded splenocytes was calculated relative to the control (unloaded) population and expressed as % specific lysis.

[3] = test system: T cell lines against a natural (non-mutated) epitope (SSX-241-49); assay: Cross-reactivity and functional avidity: IFN-gamma from T cell lines against natural SSX-2 41-49 epitope; format: cell-based, HHD transgenic mice; conditions: for Cross-reactivity and fct avidity (native to analogs)*: IFN-gamma from T cell line raised against native SSX-2 41-49, native = 1, lower = more active;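 as to all read-outs here: peptide analogs tested ex vivo with competent APCs, IFN-gamma in supernatant measured by ELISA, readouts include minimal triggering concentration, peak effect and concentration at peak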
[4] = test system: target cells coated with natural peptide; assay: Plasmid prime, SSX-2 peptide boost, in vivo cytotoxicity (CFSE); set-up: species or system HHD mice; conditions: spleen and blood; targets coated with 20 μg/ml and 1 μg/ml natural peptide
Description: Eight groups of mice (n=4) were immunized with plasmid expressing SSX-241-49 natural epitope, by direct inoculation into the inguinal lymph nodes with 25 μg in 25 μl of PBS/each lymph node at day 0, 3, 14 and 17. This was followed by two additional peptide boosts (similar amount) at day 28 and 31, using a negative control peptide (Melan A 26-35 “EAA”), natural peptide or analogs as shown in FIG. 9.
as §1, with “To evaluate the in vivo response against natural peptide, splenocytes were isolated from littermate control HHD mice and incubated with 20 μg/mL or 1 μg/ml of natural peptide for 2 hours. These” for “These”, “CFSE^hi” for “CFSE^hi and CFSE^med”, “μM” for “μM, respectively,”, “spleen” for “the spleens”, “lysis. FIGS. 10 (spleen) and 11 (blood) show the in vivo cytotoxicity elicited by the regimens described in FIG. 7.” for “lysis.”

HLA-A*0201 [5] = target: T1, HLA-A*0201 (Homo sapiens, UniProt P04439, D140Y/D185E/D98H/E176V/E277Q/G131W/G231S/I119V/I121R/I166T/I218V/L300P/L318F/N151K/N90K/P208A/P217A/Q86G/Q94H/R138H/R169H/T345S); assay: Peptide binding using T2 cells (SSX-2 41-49 analogs); conditions: for Relative affinity (1/RA): half maximal binding of wild-type peptide relative to analog, native = 1.0
From the text: Thus, at limiting concentrations of peptide, it is a measurement of Kon mostly and at saturation levels of peptide it is a measurement of both Kon and Koff.

[6] = test system: T cells that recognized native PSMA288-297 peptide; assay: Peptide immunization with PSMA analogs, IFN-gamma ELISPOT against native peptide; format: in vivo, HHD transgenic mice; conditions: peptide + pI:C intranodal immunization
Description: Groups of HHD transgenic mice (n=8) were immunized with peptide (natural epitope PSMA288-297, or analogs bearing substitutions at primary or secondary anchor residues) by direct inoculation into the inguinal lymph nodes, with 25 μg in 25 μl of PBS+12.5 μg of pI:C to each lymph node at day 0, 3, 14 and 17.
Mice were sacrificed at 10 days after the last boost, and splenocytes prepared and assessed for IFN-γ production by ELISPOT analysis. […] At 48 hours after incubation, the assay was developed and the frequency of cytokine-producing T cells that recognized native PSMA288-297 peptide was automatically counted. The data is represented in FIG. 22 as the number of spot forming colonies/well (mean of triplicates±SD). […] To the extent that the poor immunogenicity of the native epitope reflects tolerance, the improved activity of these analogs represents tolerance breaking.

624.38 melanoma cells = assay: Plasmid prime, SSX-2 peptide boost, ex vivo cytotoxicity against human tumor cells; format: in vivo, mice; conditions: ex vivo after boost
Description: Eight groups of mice (n=4) were immunized with plasmid expressing SSX-241-49 natural epitope by direct inoculation into the inguinal lymph nodes with 25 μg in 25 μl of PBS/each lymph node at day 0, 3, 14 and 17. This was followed by two additional peptide boosts (similar amount) at day 28 and 31, using a negative control peptide (Melan A 26-35 “EAA”), natural peptide or analogs as shown in FIG. 9.

HLA-A*0201 [7] = target: T1, HLA-A*0201; assay: iTopia affinity assay (ED50); format: binding; conditions: PRAME425-433 analogs; printed as reduced / less (lower affinity)
From the text: Avidin-coated microtiter plates containing class I monomer loaded with a so-called placeholder peptide were used to evaluate peptide binding, affinity and off-rate. The monomer-coated plates were supplied as part of the iTopia Epitope Discovery System Kit (Beckman Coulter, Inc., San Diego, Calif., USA). Assay buffers, anti-MHC-FITC mAb and beta2-microglobulin and control peptides were also supplied with the kits.
Plates were read on the fluorometer. Sigmoidal dose response curves were generated using Prism software.

[8] = test system: T cell line specific for the native epitope (PRAME425-433); assay: Cross-reactivity of PRAME425-433 analogs: IFN-gamma from native-epitope-specific T cell line; format: cell-based; conditions: analog peptide at approximately 0.3 μM
Description: The analogs listed in FIGS. 26-28 were tested for various properties such as improved affinity and stability of binding, cross-reactivity with the native epitope, and immunogenicity as follows in Examples 40-48. […] The observed affinities of the analogs are reported as % binding (compared to the positive control) and ED50, and stability of binding as half time of dissociation. Cross reactivity with the native epitope was assessed by using the analog peptides to stimulate IFN-gamma secretion from a T cell line specific for the native epitope, essentially as described in Example 6. The data shown in FIGS. 26-28 were generated by stimulating with analog peptide at approximately 0.3 μM. […] In some cases, the reported values are the average of two determinations.

[9] = test system: PRAME+ A2+ 624.38 melanoma cells; assay: PRAME immunization, ex vivo cytotoxicity against human tumor cells; format: in vivo, HHD transgenic mice; conditions: mouse, in vivo
Description: This was followed by two peptide boosts (2.5 μg) at day 28 and 31, with the analog L426Nva L433Nle.

Molecule	Cross-reactivity and fct avidity (native to analogs)* [3]	Relative affinity (1/RA) (HLA-A*0201 [5])	also measured
SNvaLMWITQV (S[Nva]LMWITQV) [Nyeso-1 157-165 (L158Nva, C165V))]			IFN-gamma production upon ex vivo re-stimulation, in words [1]: large levels of IFN-gamma more rapidly; in vivo cytotoxicity (% specific lysis), in words [2]: substantial, constant cytotoxicity
YASEKIFYV [SSX2 41-49 (K41Y)]	3	1.7	in vivo cytotoxicity (% specific lysis), in words [4]: increased activity relative to the natural peptide
{Abu}LPSIPVHPI [Peptide G288Abu]			IFN-γ ELISPOT response against native epitope, in words [6]: slightly higher (but significant) activity than the native peptide
CC[C@H](C)[C@H](NC(=O)[C@H](Cc1ccc(O)cc1)NC(=O)[C@H](Cc1ccccc1)NC(=O)[C@@H](NC(=O)[C@H](CCCCN)NC(=O)[C@H](CCC(=O)O)NC(=O)[C@H](CO)NC(=O)[C@@H](NC(=O)[C@@H](N)Cc1ccccc1)C(C)C)[C@@H](C)CC)C(=O)O [SSX2 41-49 (K41F, A42V, V49I)]	0.3	1.6	cytotoxicity against human tumor cells, in words (624.38 melanoma cells): increased cytotoxicity against human tumor cells
L158V C165V: NY-ESO-1 157-165 analog, L158V and C165V (SVLMWITQV; UniProt P78358 157-165, looked up, variant L158V C165V)			IFN-gamma production upon ex vivo re-stimulation, in words [1]: increased amounts of IFN-gamma; in vivo cytotoxicity (% specific lysis), in words [2]: effect in the same range with wild-type peptide or the C165V mutant
S157K L158V C165V: NY-ESO-1 157-165 analog, triple mutant (KVLMWITQV; UniProt P78358 157-165, looked up, variant S157K L158V C165V)			in vivo cytotoxicity (% specific lysis), in words [2]: effect in the same range with wild-type peptide or the C165V mutant
FASEKIFYV [SSX2 41-49 (K41F)]	0.3	1.5	in vivo cytotoxicity (% specific lysis), in words [4]: increased activity relative to the natural peptide
GLWSIPVHPI [Peptide P290W]			IFN-γ ELISPOT response against native epitope, in words [6]: increased priming of immune responses against the native epitope
Ala substitution: PRAME425-433 analog with Ala at the PΩ anchor position (SLLQHLIGA; UniProt P78395 425-433, looked up, variant L433A)			ED50 change relative to native peptide (HLA-A*0201 [7]): more than 10 fold
Lys P1 analog: PRAME425-433 analog with Lys for Ser at P1 (KLLQHLIGL)			IFN-γ elicited, % of the native peptide [8]: 40%
SLLQHLIGL [PRAME 425-433, reference compound]			ex vivo cytotoxicity against A2+ PRAME+ 624.38 cells, in words [9]: able to lyse human tumor cells
CC[C@H](C)[C@H](NC(=O)[C@H](CCCCN)NC(=O)[C@H](CCC(=O)O)NC(=O)[C@H](CO)NC(=O)[C@H](C)NC(=O)[C@@H](N)Cc1ccc([N+](=O)[O-])cc1)C(=O)N[C@@H](Cc1ccccc1)C(=O)N[C@@H](Cc1ccc(O)cc1)C(=O)N[C@H](C(=O)O)C(C)C [SSX2 41-49 (K41(Phe-4N02))] (H-[Phe(4-NO2)]ASEKIFYV-OH)	3	1.1	cross-reactivity / IFN-gamma inducing activity relative to wild-type, in words ([3]; SSX-2 41-49 analogs, wild-type specific T cells): much lower concentration; binding affinity (and stability) with HLA-A*0201 relative to wild-type, in words (HLA-A*0201 [5]; SSX-2 41-49 analogs): about the same as that of wild-type peptide
FVSEKLFYV [SSX2 41-49 (K41F, A42V, I46L)]	3	1.9	
FVSEKIFYM [SSX2 41-49 (K41F, A42V, V49M)]	>10	0.8	
KISEKIFYV [SSX2 41-49 (A42I)]	3	1.7	
FVSQKIFYV [SSX2 41-49 (K41F, A42V, E44Q)]	10	0.4	
S157F L158V C165V: NY-ESO-1 157-165 analog, triple mutant (FVLMWITQV; UniProt P78358 157-165, looked up, variant S157F L158V C165V)			IFN-gamma production upon ex vivo re-stimulation, in words [1]: increased amounts of IFN-gamma
FVSDKIFYV [SSX2 41-49 (K41F, A42V, E44D)]	>10	1.1	
WLSEKIFYV [SSX2 41-49 (K41W, A42L)]	0.3	3.3	
FVSEKLFSA	>10	2.4	
KMSEKIFYV [SSX2 41-49 (A42M)]	0.1	1.7	
I297Nva: PSMA288-297 analog with Nva for Ile at position 297 [Peptide I297Nva]			IFN-γ ELISPOT response against native epitope, in words [6]: slightly higher (but significant) activity than the native peptide
WMSEKIFYV [SSX2 41-49 (K41W, A42M)]	1	2.9	
